{"source": "patent US20250145601A1", "about": "“NOVEL BICYCLIC COMPOUNDS AS RAD51 INHIBITORS” (SATYA THERAPEUTICS, INC., priority 2022, published 2025)"}
{"tested_on": "MDA MB 231 cells", "assay": "Antiproliferation assay in MDA MB 231 cells (Cell Titer Glo)", "assay_type": "cell-based", "details": "Homo sapiens, MDA-MB-231, 216 h, MDAMB231 cell line, 9 day treatment, racemic compounds (Table 2)", "protocol": "(§1) Antiproliferation Assay in MDA MB 231 Cells MDA MB 231 cells were seeded in 96 well plate at a seeding density of 250 cells/well. The cells were allowed to settle overnight under standard incubator conditions (37° C., 5% CO2). Next day treatment with increasing dose of test compounds and reference compounds were done to the respective wells and the cells were further incubated under standard cell culture conditions for another 4 days. On the 5th day, media was replenished with fresh treatment and cells were incubated for a total of 9 day treatment period. On the day of termination, appropriate volume of Cell Titer Glo reagent was added to the treatment (and control) wells and the plates were kept on a plate shaker @300 RPM for 15 min. Luminiscence reading (RLU) was […] RLU is directly proportional to ATP content and is directly related to number of metabolically active cells in the respective well. Calculation: a. Blank Correction: RLU of the Wells Containing No Cells is Considered as Blank and Subtracted from all RLU of the Treated and Control Wells [formula]", "units": {"inhibition at 10 µM": "%"}}
{"smiles": "CCC(=O)N1N=C(c2c(C)c3ncccc3[nH]c2=O)CC1c1ccc(C)cc1", "note": "(stereo not shown) [Example 69, 4-methyl-3-(1-propionyl-5-(p-tolyl)-4,5-dihydro-1H-pyrazol-3-yl)-1,5-naphthyridin-2(1H)-one]", "inhibition at 10 µM": "≥ 50"}
{"smiles": "CCC(=O)N1N=C(c2c(C)c3ncccc3[nH]c2=O)CC1c1ccc(OC)cc1", "note": "(stereo not shown) [Example 9, 3-(5-(4-Methoxyphenyl)-1-propionyl-4,5-dihydro-1H-pyrazol-3-yl)-4-methyl-1,5-naphthyridin-2(1H)-one]", "inhibition at 10 µM": "< 50"}
{"smiles": "CCC(=O)N1N=C(c2c(C)c3ccsc3[nH]c2=O)CC1c1ccc(C)cc1Cl", "note": "(stereo not shown) [Example 65, 5-(5-(2-chloro-4-methylphenyl)-1-propionyl-4,5-dihydro-1H-pyrazol-3-yl)-4-methylthieno[2,3-b]pyridin-6(7H)-one]", "inhibition at 10 µM": "≥ 50"}
{"smiles": "COc1ccc(C2CC(c3c(C)c4cc(Cl)ccc4[nH]c3=O)=NN2C(=O)C2CC2)cc1", "note": "(stereo not shown) [Example 2, 6-Chloro-3-(1-(cyclopropanecarbonyl)-5-(4-methoxyphenyl)-4,5-dihydro-1H-pyrazol-3-yl)-4-methylquinolin-2(1H)-one]", "inhibition at 10 µM": "≥ 50"}
{"smiles": "CCC(=O)N1N=C(c2c(C)c3ccsc3[nH]c2=O)CC1c1cccnc1", "note": "(stereo not shown) [Example 36, 4-methyl-5-(1-propionyl-5-(pyridin-3-yl)-4,5-dihydro-1H-pyrazol-3-yl)thieno[2,3-b]pyridin-6(7H)-one]", "inhibition at 10 µM": "< 50"}
{"smiles": "CCC(=O)N1N=C(c2c(C)c3ccncc3[nH]c2=O)CC1c1ccc(C)cc1", "note": "(racemic) [Example 74, 4-methyl-3-(1-propionyl-5-(p-tolyl)-4,5-dihydro-1H-pyrazol-3-yl)-1,7-naphthyridin-2(1H)-one]", "inhibition at 10 µM": "≥ 50"}
{"smiles": "CCC(=O)N1N=C(c2c(C)c3cnccc3[nH]c2=O)CC1c1ccc(C)cc1", "note": "(stereo not shown) [Example 85, 4-methyl-3-(1-propionyl-5-(p-tolyl)-4,5-dihydro-1H-pyrazol-3-yl)-1,6-naphthyridin-2(1H)-one]", "inhibition at 10 µM": "≥ 50"}
{"smiles": "Cc1ccc(C2CC(c3c(C)c4ccsc4[nH]c3=O)=NN2C(=O)C(C)C)cc1", "note": "(stereo not shown) [Example 63, 5-(1-isobutyryl-5-(p-tolyl)-4,5-dihydro-1H-pyrazol-3-yl)-4-methyl-7,7a-dihydrothieno[2,3-b]pyridin-6(7H)-one]", "inhibition at 10 µM": "≥ 50"}
{"smiles": "CCC(=O)N1N=C(c2c(C)c3ccsc3[nH]c2=O)CC1c1ccc(OC)nc1", "note": "(stereo not shown) [Example 21, 5-(5-(6-methoxypyridin-3-yl)-1-propionyl-4,5-dihydro-1H-pyrazol-3-yl)-4-methylthieno[2,3-b]pyridin-6(7H)-one]", "inhibition at 10 µM": "≥ 50"}
{"smiles": "CCC(=O)N1N=C(c2c(C)c3cc(Cl)cnc3[nH]c2=O)CC1c1ccc(C)cc1", "note": "(stereo not shown) [Example 67, 6-chloro-4-methyl-3-(1-propionyl-5-(p-tolyl)-4,5-dihydro-1H-pyrazol-3-yl)-1,8-naphthyridin-2(1H)-one]", "inhibition at 10 µM": "< 50"}
{"smiles": "CCC(=O)N1N=C(c2c(C)c3ccsc3[nH]c2=O)CC1c1csc(C)n1", "note": "(stereo not shown) [Example 48, 4-methyl-5-(5-(2-methylthiazol-4-yl)-1-propionyl-4,5-dihydro-1H-pyrazol-3-yl)thieno[2,3-b]pyridin-6(7H)-one]", "inhibition at 10 µM": "< 50"}
{"smiles": "CCC(=O)N1N=C(c2c(C)c3ccsc3[nH]c2=O)CC1c1ccncc1", "note": "(stereo not shown) [Example 35, 4-methyl-5-(1-propionyl-5-(pyridin-4-yl)-4,5-dihydro-1H-pyrazol-3-yl)thieno[2,3-b]pyridin-6(7H)-one]", "inhibition at 10 µM": "< 50"}
{"smiles": "CCC(=O)N1N=C(c2c(C)c3ccsc3[nH]c2=O)CC1c1ccc(OC)cc1", "note": "(racemic) [Example 20, 5-(5-(4-Methoxyphenyl)-1-propionyl-4,5-dihydro-1H-pyrazol-3-yl)-4-methylthieno-[2,3-b]pyridin-6(7H)-one]", "inhibition at 10 µM": "≥ 50"}
{"smiles": "CCC(=O)N1N=C(c2c(C)c3ccsc3[nH]c2=O)CC1c1ccc(C(C)C)cc1", "note": "(stereo not shown) [Example 49, 5-(5-(4-isopropylphenyl)-1-propionyl-4,5-dihydro-1H-pyrazol-3-yl)-4-methylthieno[2,3-b]pyridin-6(7H)-one]", "inhibition at 10 µM": "< 50"}
{"smiles": "CCC(=O)N1N=C(c2c(C)c3cncnc3[nH]c2=O)CC1c1ccc(OC)cc1", "note": "(stereo not shown) [Example 14, 6-(5-(4-Methoxyphenyl)-1-propionyl-4,5-dihydro-1H-pyrazol-3-yl)-5-methylpyrido-[2,3-d]pyrimidin-7(8H)-one]", "inhibition at 10 µM": "< 50"}
{"smiles": "CCC(=O)N1N=C(c2c(C)c3nc(Cl)ccc3[nH]c2=O)CC1c1ccc(OC)cc1", "note": "(stereo not shown) [Example 16, 6-chloro-3-(5-(4-methoxyphenyl)-1-propionyl-4,5-dihydro-1H-pyrazol-3-yl)-4-methyl-1,5-naphthyridin-2(1H)-one]", "inhibition at 10 µM": "≥ 50"}
{"smiles": "CCC(=O)N1N=C(c2c(C)c3cc(Cl)ccc3[nH]c2=O)CC1c1ccc(OC)nc1", "note": "(stereo not shown) [Example 7, 6-chloro-3-(5-(6-methoxypyridin-3-yl)-1-propionyl-4,5-dihydro-1H-pyrazol-3-yl)-4-methylquinolin-2(1H)-one]", "inhibition at 10 µM": "≥ 50"}
{"smiles": "CCC(=O)N1N=C(c2c(C)c3ccsc3[nH]c2=O)CC1c1ccc(C2CC2)cc1", "note": "(stereo not shown) [Example 47, 5-(5-(4-cyclopropylphenyl)-1-propionyl-4,5-dihydro-1H-pyrazol-3-yl)-4-methylthieno[2,3-b]pyridin-6(7H)-one]", "inhibition at 10 µM": "< 50"}
{"smiles": "CCC(=O)N1N=C(c2c(C)c3ccsc3[nH]c2=O)CC1c1ccc(N2CCCC2)cc1", "note": "(stereo not shown) [Example 46, 4-methyl-5-(1-propionyl-5-(4-(pyrrolidin-1-yl)phenyl)-4,5-dihydro-1H-pyrazol-3-yl)thieno[2,3-b]pyridin-6(7H)-one]", "inhibition at 10 µM": "≥ 50"}
{"smiles": "CCC(=O)N1N=C(c2c(C)c3nc(Cl)ccc3[nH]c2=O)CC1c1ccc(C)cc1", "note": "(stereo not shown) [Example 61, 6-chloro-4-methyl-3-(1-propionyl-5-(p-tolyl)-4,5-dihydro-1H-pyrazol-3-yl)-1,5-naphthyridin-2(1H)-one]", "inhibition at 10 µM": "≥ 50"}
{"smiles": "CCC(=O)N1N=C(c2c(C)c3ccccc3[nH]c2=O)CC1c1ccc(OC)cc1", "note": "(stereo not shown) [Example 11, 3-(5-(4-Methoxyphenyl)-1-propionyl-4,5-dihydro-1H-pyrazol-3-yl)-4-methylquinolin-2(1H)-one]", "inhibition at 10 µM": "≥ 50"}
{"smiles": "CCC(=O)Nc1ccc(C2CC(c3c(C)c4cc(Cl)ccc4[nH]c3=O)=NN2C(=O)CC)cc1", "note": "(stereo not shown) [Example 8, N-(4-(3-(6-chloro-4-methyl-2-oxo-1,2-dihydroquinolin-3-yl)-1-propionyl-4,5-dihydro-1H-pyrazol-5-yl)phenyl)propionamide]", "inhibition at 10 µM": "≥ 50"}
{"smiles": "CCC(=O)N1N=C(c2c(C)c3ccsc3[nH]c2=O)CC1c1ccc(CF)cc1", "note": "(stereo not shown) [Example 68, 5-(5-(4-(fluoromethyl)phenyl)-1-propionyl-4,5-dihydro-1H-pyrazol-3-yl)-4-methylthieno[2,3-b]pyridin-6(7H)-one]", "inhibition at 10 µM": "≥ 50"}
{"smiles": "CCC(=O)N1N=C(c2c(C)c3cc(Cl)ccc3[nH]c2=O)CC1c1ccc(C)cc1", "note": "(stereo not shown) [Example 59, 6-chloro-4-methyl-3-(1-propionyl-5-(p-tolyl)-4,5-dihydro-1H-pyrazol-3-yl)quinolin-2(1H)-one]", "inhibition at 10 µM": "≥ 50"}
{"smiles": "CCC(=O)N1N=C(c2c(C)c3ccsc3[nH]c2=O)CC1c1ccc(Cl)cc1", "note": "(racemic) [Example 28, 5-(5-(4-chlorophenyl)-1-propionyl-4,5-dihydro-1H-pyrazol-3-yl)-4-methylthieno[2,3-b]pyridin-6(7H)-one]", "inhibition at 10 µM": "≥ 50"}
{"smiles": "COc1ccc(C2CC(c3c(C)c4cc(Cl)ccc4[nH]c3=O)=NN2C(=O)C2CCOC2)cc1", "note": "(stereo not shown) [Example 4, 6-chloro-3-(5-(4-methoxyphenyl)-1-(tetrahydrofuran-3-carbonyl)-4,5-dihydro-1H-pyrazol-3-yl)-4-methylquinolin-2(1H)-one]", "inhibition at 10 µM": "≥ 50"}
{"smiles": "CCC(=O)N1N=C(c2cc3cc(Cl)ccc3[nH]c2=O)CC1c1ccc(OC)cc1", "note": "(stereo not shown) [Example 17, 6-Chloro-3-(5-(4-methoxyphenyl)-1-propionyl-4,5-dihydro-1H-pyrazol-3-yl)quinolin-2(1H)-one]", "inhibition at 10 µM": "≥ 50"}
{"smiles": "CCC(=O)N1N=C(c2c(C)c3cc(C)ncc3[nH]c2=O)CC1c1ccc(C)cc1", "note": "(stereo not shown) [Example 81, 4,6-dimethyl-3-(1-propionyl-5-(p-tolyl)-4,5-dihydro-1H-pyrazol-3-yl)-1,7-naphthyridin-2(1H)-one]", "inhibition at 10 µM": "< 50"}
{"smiles": "CCC(=O)N1N=C(c2c(C)c3ccsc3[nH]c2=O)CC1c1ccc(C)s1", "note": "(stereo not shown) [Example 41, 5-(5-(5-methylthiophen-2-yl)-1-propionyl-4,5-dihydro-1H-pyrazol-3-yl)-4-methylthieno[2,3-b]pyridin-6(7H)-one]", "inhibition at 10 µM": "≥ 50"}
{"smiles": "CCC(=O)N1N=C(c2c(C)c3ccsc3[nH]c2=O)CC1c1ccccc1", "note": "(stereo not shown) [Example 32, 4-methyl-5-(5-phenyl-1-propionyl-4,5-dihydro-1H-pyrazol-3-yl)thieno[2,3-b]pyridin-6(7H)-one]", "inhibition at 10 µM": "< 50"}
{"tested_on": "MDA MB 231 cells", "assay": "Antiproliferation assay in MDA MB 231 cells (Cell Titer Glo)", "assay_type": "cell-based", "details": "Homo sapiens, MDA-MB-231, 216 h, MDAMB231 cell line, 9 day treatment, separated enantiomers A/B (Table 3)", "protocol": "as §1", "units": {"inhibition at 10 µM": "%"}}
{"smiles": "CCC(=O)N1N=C(c2c(C)c3ccc(N4CCN(C)CC4)cc3[nH]c2=O)CC1c1ccc(C)cc1", "note": "(single isomer, unassigned) [Example 82A]", "inhibition at 10 µM": "≥ 50"}
{"smiles": "CCC(=O)N1N=C(c2c(C)c3ccccc3[nH]c2=O)C[C@@H]1c1ccc(C)cc1", "note": "(stereo in doubt) [Example 60A, rel-(R)-4-methyl-3-(1-propionyl-5-(p-tolyl)-4,5-dihydro-1H-pyrazol-3-yl)quinolin-2-(1H)-one]", "inhibition at 10 µM": "≥ 50"}
{"smiles": "CCC(=O)N1N=C(c2c(C)c3ccccc3[nH]c2=O)CC1c1ccc(C)cc1", "note": "(single isomer, unassigned) [Example 60B]", "inhibition at 10 µM": "≥ 50"}
{"smiles": "CCC(=O)N1N=C(c2c(C)c3ccsc3[nH]c2=O)CC1c1ccc(C)cc1F", "note": "(single isomer, unassigned) [Example 66A]", "inhibition at 10 µM": "≥ 50"}
